Assay results from patent US10070648B2, “Photodynamic insecticides” (ROSALIND FRANKLIN UNIVERSITY OF MEDICINE AND SCIENCE, priority 2016, dated 2018).
Read-outs that look alike come from different tables or passages of the source.

Assays:
[1] = test system: Aedes mosquito larvae; assay: PDI assay of light-activated larvicidal activity (larva mobility); assay type: in vivo, A. aegypti and A. albopictus; settings: for 2nd instar larvicidal activity (larva immobilization, % of dark control) compared with positive controls RB and CY: 1/1000 dilution of stock, white light up to 7 hours; for EC50: 2nd instar larvae, estimated from concentration vs. larvicidal activity curve, 16 hours PS exposure in dark, then white light, read-out: EC50 for PDT-mediated 2nd-instar larvicidal activities
Excerpt: 2nd to 4th instar larvae of A. aegypti and A. albopictus (or Aedes mosquitoes in brief) were used in the experiments, as they are known vectors of Zika fever and other viral diseases. Colonies of both species were reared to provide the larvae of all instars under the approved conditions of a humidified “warm room” (˜28 C, ˜80% relative humidity).
The PDI assay to determine the larvicidal activities of the PS in Table 1 was based on procedures developed for mammalian and protozoa cells with modifications for mosquito larvae. Briefly, each PS was tested in 3-4 concentrations in 10-fold serial dilutions, starting with a 1/100 dilution of the stock solution (see Table 1 for the PS stock concentrations) as the highest. The solvent (DMSO) at these PS concentrations was ≤1%, which was pre-tested alone and shown to have no larvicidal activity. Larvae were PS-exposed (and not exposed as a control) in groups of 20 per 5 mL of water per well of a 6-well plate, in duplicate. All plates were foil-wrapped for overnight incubation under dark conditions in the “warm room.” After 16 hours of PS exposure, one of the duplicate 6-well plates was un-wrapped and the lid removed for exposure from the top with white light from a fluorescent tube-containing box (1-2 J/cm^2). The remaining 6-well plate of the duplicate was exposed under exactly the same conditions, but remained foil-wrapped as the dark control. Larvae were checked for mobility and readings recorded hourly for up to 7 hours. […] Each condition was repeated 4-5 times in independent experiments.

[2] = test system: Culex pipiens quinquefasciatus 4th instar larvae; assay: Uptake and photo-inactivation in mosquito larvae kept in dye-containing water; assay type: in vivo
Protocol: Panel [A]: Culex pipiens quinquefasciatus 4th instar larvae exposed to rose Bengal (10 μg/mL) (˜20 larvae/5 mL water/well in 6-well plate) in dark for ˜24 hours followed by exposure to white light for ˜6 hrs at ˜2500 lux. Panels [B] and [C]: Phlebotomus duboscqi female (B) and male (C) adult flies (˜20 flies/screened paper cup) fed with 5% sucrose solution and 500 μL of 5 mg/mL rose bengal in a cotton ball for ˜20 hrs in the dark followed by exposure to ˜2500 lux of white light for 3 hrs. Duplicate samples were prepared and kept in the dark as controls. Rose bengal was taken up by the mosquito larvae and sand flies of both sexes.
Culex pipiens quinquefasciatus 4th instar larvae were exposed to rose Bengal or cyanosine (10 μg/mL) (˜20 larvae/5 mL water/well in 6-well plate) in the dark for ˜24 hours followed by exposure to white light for ˜6 hrs at ˜2500 lux; Phlebotomus duboscqi female (FIG. 1, panel B) and male (FIG. 1, panel C) adult flies (˜20 flies/screened paper cup) fed with 5% sucrose solution and 500 μL of 5 mg/ml rose bengal in a cotton ball for ˜20 hrs in the dark followed by exposure to ˜2500 lux of white light for 3 hrs. Duplicate samples were prepared and kept in the dark as controls.
The susceptibility of PS-sensitized insects to white light illumination varied with the species and the PSs used. […]

[3] = test system: Aedes albopictus clone C6/36 (ATCC CRL-1660); assay: Uptake of PS by mosquito cells in vitro and photo-inactivation; settings: for state of sensitized cells after light exposure: white light, 4 hrs
Protocol: (§1) The insect cells were exposed to both dyes overnight and illuminated with white light under conditions similar to those described for mammalian and Leishmania cells. Images were captured first under differential interference (DIF) [A] and then under the filter sets for DAPI and Texas red [B]. [C] Chemical structure of cyanosione and rose Bengal.
as §1, with “Uptake of PS was assessed in insect cells, specifically Aedes albopictus clone C6/36 (ATCC CRL-1660). The” for “The”, “cells. […]” for “cells.”

[4] = 1/10000 dilution of the stocks, light-activated

Molecule	2nd instar larvicidal activity (larva immobilization, % of dark control) compared with positive controls RB and CY [1]	effect on the other instars (3rd, 4th) [1, 4]	EC50 [1] [nM]	phototoxicity to mosquito larvae ([2]; 10 μg/mL, dark ~24 hours, then white light ~6 hrs at ~2500 lux)	difference of sensitized larvae between dark and light conditions ([2]; motility as viability readout)	state of sensitized cells kept in the dark ([3]; dark)	state of sensitized cells after light exposure [3]	state of sensitized cells after light exposure ([3]; listed as RB)	viability of 2nd to 4th instar larvae [1, 4]	EC50 ([1]; Aedes) [nM]
Meso- Tetraphenylpor- phine disulphonic acid dihydrochoride [TPPS2]	most similar to RB	unscathed	–	–	–	–	–	–	–	–
Meso-tetra(4- n,n,n- trimethylanili- nium) porphine tetrachloride [TMAP]	most similar to RB	unscathed	100	–	–	–	–	–	–	–
O=C([O-])c1c(Cl)c(Cl)c(Cl)c(Cl)c1-c1c2cc(I)c(=O)c(I)c-2oc2c(I)c([O-])c(I)cc12.[Na+].[Na+] [Rose Bengal]	–	–	–	especially evident	significant	remained adherent and intact	cellular disintegration	became disintegrated	reduced the viability of all instars to a variable extent	250
